# Assay results as given in US20050049299A1, “Selective inhibitors of stat-3 activation and uses thereof” (priority 2003, published 2005).
# What was measured:
# Format in all cases: cell-based, human
# STAT3 phosphorylation [1] = assay: Constitutive STAT3 phosphorylation in U266 cells (Western blot)
# Experimental: (§1) U266 cells (2×10^6) were treated with the indicated concentrations of curcumin for 1 h, or treated with 50 μM curcumin for the indicated durations and levels of phosphorylated-STAT3 (upper panel) and STAT3 (lower panel) were examined in whole cell extracts by Western Blotting. […] U266 cells (2×10^6) were treated with 50 μM curcumin for indicated durations, and examined for phosphorylated and nonphosphorylated-STAT3, and STAT5. […] U266 cells (2×10^6) were preincubated with curcumin (50 μM) for indicated durations before treatment with IFN-α (10 ng/ml) for additional 30 min and then examined for phosphorylated and nonphosphorylated-STAT1.
# U266 cells (2×10^6 cells) were treated with 50 μM curcumin for the indicated durations (left panels) or treated for 1 h and washed with PBS two times to remove curcumin before resuspending in fresh medium. Cells were removed at indicated times and lysed to prepare the whole cell extract (right panels). Thirty micrograms of whole cell extracts were resolved on 7.5% SDS-PAGE, electrotransferred to a nitrocellulose membrane, probed for the phosphorylated-STAT3 (upper panels) and stripped and reprobed for STAT3 (middle panels) and β-actin (lower panels).
# Thirty micrograms of whole-cell extract was resolved on 7.5% SDS-PAGE, electrotransferred to a nitrocellulose membrane, probed for the phospho-STAT3 (upper panel), stripped, and reprobed for STAT3 (middle panel) and β-actin (lower panel).
# (§2) For detection of STAT proteins, whole-cell extracts were prepared by lysing the curcumin-treated cells in lysis buffer (20 mM Tris, pH 7.4, 250 mM NaCl, 2 mM EDTA, pH 8.0, 0.1% Triton-X100, 0.01 mg/ml aprotinin, 0.005 mg/ml leupeptin, 0.4 mM PMSF, and 4 mM NaVO4). Lysates were then spun at 14000 rpm for 10 min to remove insoluble material, and resolved on a 7.5% gel. After electrophoresis, the proteins were electrotransferred to a nitrocellulose membrane, blocked with 5% nonfat milk, and probed with anti-STAT antibodies (1:1000) overnight at 4° C. The blot was washed, exposed to HRP-conjugated secondary antibodies for 1 h, and finally examined by chemiluminescence (ECL, Amersham Pharmacia Biotech. Arlington Heights, Ill.).
# Whether curcumin inhibits the constitutive STAT3 phosphorylation in U266 was investigated. U266 cells were incubated either with different concentrations of curcumin for 1 h or with 50 μM curcumin for different times. Curcumin inhibited the constitutively active STAT3 in a dose-(FIG. 1A) and time-(FIG. 1B) dependent manner. Curcumin-induced inhibition could be observed as early as 10 min and with a concentration as low as 10 μM.
# Whether curcumin-induced inhibition of STAT3 phosphorylation was reversible was further examined. U266 cells were first treated for 60 min with curcumin, and then the cells were washed twice with PBS to remove curcumin. The cells were then cultured in the fresh medium for various durations, and the levels of phosphorylated STAT3 were measured.
# In comparison, treatment of cells with 50 μM curcumin for 60 minutes was sufficient to inhibit STAT3 phosphorylation (see FIGS. 1A and 1B).
# STAT1 phosphorylation = assay: IFN-α-inducible STAT1 phosphorylation in U266 cells (Western blot); settings: 50 μM curcumin, IFN-α 10 ng/ml
# Experimental: as §1
# as §2, with “Ill.). […]” for “Ill.).”
# [2] = tested on: STAT3 nuclear translocation; assay: STAT3 distribution in HNSCC cells (immunocytochemistry, Alexa fluorochrome); settings: MDA 1986LN, MDA 686LN and JMAR cells, 50 μM, 2 hrs
# Experimental: MDA 1986LN, MDA 686LN and JMAR cells were incubated with either media alone or with curcumin (50 μM) for 2 hrs and then analyzed by immunocytochemistry using Alexa fluorochrome for the distribution of STAT3 (original magnification ×200). […] The same procedure as mentioned above was performed on the same cells and the p-STAT3 analyzed by immunocytochemistry using horse radish peroxidase stain (original magnification ×200).
# Since STAT3 retained in the cytoplasm under resting conditions and in the non-phosphorylated state translocates to nucleus when phosphorylated, the effect of curcumin on the distribution of STAT3 was examined. To accomplish this, curcumin-treated and untreated MDA 1986LN, MDA 686LN and JMAR cells were analyzed for distribution of STAT3 by immunocytochemistry using ALEXA fluorochrome.
# STAT3 phosphorylation [3] = assay: IL-6-inducible STAT3 phosphorylation in RPMI 8226 cells (Western blot)
# Experimental: FIGS. 3A-C show& that IL-6 induces STAT3 phosphorylation in human multiple myeloma RPMI 8226 cells and curcumin inhibits it. […] U266, RPMI 8226, MM.1S, MM.1R and OCl cells (2×10^6) were lysed, and 30 μg of whole-cell extracts were resolved on 7.5% SDS-PAGE, electrotransferred to a nitrocellulose membrane, and probed for phosphorylated-STAT3 (upper panel) and STAT3 (lower panel). […] Thirty micrograms of whole cell extracts were resolved on 7.5% SDS-PAGE, electrotransferred to a nitrocellulose membrane, and probed for the phosphorylated-STAT3 (upper panel) and stripped and reprobed for STAT3 (middle panel) and β-actin (lower panel).
# as §2
# Since IL-6 is a growth factor for multiple myeloma and induces STAT3 phosphorylation (5, 6, 15), whether curcumin could inhibit IL-6-induced STAT3 phosphorylation was examined. […] IL-6 induced phosphorylation of STAT3 as early as 5 min and began to decline at 60 minutes (FIG. 3B). RPMI 8226 cells were then incubated with curcumin for different times and examined for IL-6-inducible STAT3 phosphorylation.
# Exposure of cells to curcumin for 4 hours was sufficient to completely suppress IL-6-induced STAT3 phosphorylation. Curcumin alone had no effect on STAT3 phosphorylation in these cells (data not shown).
structure (smiles),measurement,setting,value
"COc1cc(/C=C/C(=O)CC(=O)/C=C/c2ccc(O)c(OC)c2)ccc1O [curcumin, diferuloylmethane]",dose needed to suppress STAT3 phosphorylation (comparison AG490 vs curcumin),STAT3 phosphorylation [1],10 µM
same,earliest time at which inhibition of constitutive STAT3 phosphorylation could be observed,"STAT3 phosphorylation [1]; U266 cells, 50 μM curcumin",10 min
same,treatment time sufficient to inhibit STAT3 phosphorylation,"STAT3 phosphorylation [1]; U266 cells, 50 μM curcumin",60 min
same,inhibition of constitutive STAT3 phosphorylation,"STAT3 phosphorylation [1]; U266 cells, 50 μM, 1 h",completely inhibited
same,lowest concentration at which inhibition of constitutive STAT3 phosphorylation could be observed,"STAT3 phosphorylation [1]; U266 cells, 1 h",10 µM
same,time to complete reversal of STAT3 phosphorylation inhibition after removal of curcumin,"STAT3 phosphorylation [1]; U266 cells, 60 min treatment then washed",≤ 24 h
same,overall expression of STAT3 protein,"STAT3 phosphorylation [1]; U266 cells, curcumin treatment",did not alter the overall expression of STAT3 protein
same,exposure needed to suppress STAT3 phosphorylation (comparison AG490 vs curcumin),STAT3 phosphorylation [1]; curcumin,30 min
same,IFN-α-induced STAT1 phosphorylation,STAT1 phosphorylation,suppressed the phosphorylation in a time-dependent manner
same,translocation of STAT3 to the nucleus,[2],prevented the translocation of STAT3 to the nucleus
same,exposure sufficient to completely suppress IL-6-induced STAT3 phosphorylation,"STAT3 phosphorylation [3]; 50 μM curcumin, IL-6 10 ng/ml 10 min",4 h
same,effect of curcumin alone on STAT3 phosphorylation,STAT3 phosphorylation [3]; without IL-6 (data not shown),no effect
